Patent publication US6737383B1, “Herbicidal oxadiazolidines” (priority 1999, dated 2004)

Experiments:
cocklebur = assay: Test B pre/postemergence cocklebur; assay type: in vivo, Xanthium strumarium
How it was run: (§1)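 Herbicidal effect was estimated by eye on a ten-point control scale after plants spent twelve to sixteen days in a greenhouse following soil or foliar treatment. Foliar sprays targeted plants at one to four leaves; all doses were formulated in a non-phytotoxic solvent with surfactant.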

blackgrass = assay: Test B pre/postemergence blackgrass; assay type: in vivo, Alopecurus myosuroides
How it was run: as §1

bamyardgrass = assay: Test B flood test barnyardgrass; assay type: in vivo, Echinochloa crus-galli
How it was run: (§2)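 Read-out is a visual response score from 0 (no effect) to 10 (complete control), assigned by comparison with untreated controls. Treatment was applied at the 2-leaf stage, and plants stayed in the greenhouse for twelve to sixteen days before scoring.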

velvetleaf = assay: Test B pre/postemergence velvetleaf; assay type: in vivo, Abutilon theophrasti
How it was run: as §1

wild oat = assay: Test B pre/postemergence wild oat; assay type: in vivo, Avena fatua
How it was run: as §1

duck salad = assay: Test B flood test duck salad; assay type: in vivo, Heteranthera limosa
How it was run: as §2

smallflower flatsedge = assay: Test B flood test smallflower flatsedge; assay type: in vivo, Cyperus difformis
How it was run: as §2

corn = assay: Test B pre/postemergence corn; assay type: in vivo, Zea mays
How it was run: as §1

wheat = assay: Test B pre/postemergence wheat; assay type: in vivo, Triticum aestivum
How it was run: as §1

sugar beet = assay: Test B pre/postemergence sugar beet; assay type: in vivo, Beta vulgaris
How it was run: as §1

crabgrass = assay: Test B pre/postemergence crabgrass; assay type: in vivo, Digitaria sanguinalis
How it was run: as §1

purple nutsedge = assay: Test B pre/postemergence purple nutsedge; assay type: in vivo, Cyperus rotundus
How it was run: as §1

soybean = assay: Test B pre/postemergence soybean; assay type: in vivo, Glycine max
How it was run: as §1

bedstraw = assay: Test B pre/postemergence bedstraw; assay type: in vivo, Galium aparine; settings: for Plant response rating, Bedstraw: Postemergence
How it was run: as §1

surinam grass = assay: Test B pre/postemergence surinam grass; assay type: in vivo, Brachiaria decumbens
How it was run: as §1

rice = assay: Test B flood test rice; assay type: in vivo, Oryza sativa
How it was run: as §2

[1] = Postemergence, Rate 62 g/ha, scale 0 to 10, 0 is no effect, 10 is complete control
[2] = Postemergence, Rate 125 g/ha, scale of 0 to 10 where 0 is no effect and 10 is complete control
[3] = Postemergence, Rate 250 g/ha, scale of 0 to 10, 0 is no effect, 10 is complete control
[4] = Postemergence, Rate 500 g/ha, scale of 0 to 10 where 0 is no effect and 10 is complete control
[5] = Preemergence, Rate 62 g/ha, scale 0 to 10 (0 no effect, 10 complete control)
[6] = Preemergence, Rate 125 g/ha, scale of 0 to 10 where 0 is no effect and 10 is complete control
[7] = Preemergence, Rate 500 g/ha, scale of 0 to 10 where 0 is no effect and 10 is complete control
[8] = Rate 62 g/ha, flood test species, Pre-emergence, visual evaluation after twelve to sixteen days
[9] = Rate 125 g/ha, under heading Pre-emergence, flood test species, visual evaluation after twelve to sixteen days
[10] = Rate 250 g/ha, Pre-emergence (flood test species), scale 0 to 10, 0 is no effect, 10 is complete control
[11] = Rate 500 g/ha, Pre-emergence section of Table B, 0 to 10 scale (0 no effect, 10 complete control)

In the case of `C#CC(C)n1c(=O)on(C(=O)N(c2ccccc2)C(C)C)c1=O` (stereo not shown) [Compound 609], the “Plant response rating, Cocklebur” value (cocklebur; [1]) is reported as 0, the “Plant response rating, Cocklebur” value (cocklebur; [2]) is reported as 1 and the “Cocklebur plant response rating” value (cocklebur; [3]) is reported as 2. The “Plant response rating, Cocklebur” value (cocklebur; [4]) was 3, the “Cocklebur plant response rating” value (cocklebur; [5]) was 0 and the “Cocklebur plant response rating” value (cocklebur; [6]) was 0. For the same compound, the “Cocklebur plant response rating (0 to 10 scale)” value (cocklebur; Preemergence, Rate 250 g/ha) was 0, the “Plant response rating, Cocklebur” value (cocklebur; [7]) was 3 and the “Plant response rating, Blackgrass” value (blackgrass; [1]) was 5. For the same compound, the “Plant response rating, Blackgrass” value (blackgrass; [2]) was 8, the “Blackgrass plant response rating” value (blackgrass; [3]) was 8 and the “Plant response rating, Blackgrass” value (blackgrass; [4]) was 8. For the same compound, the “Blackgrass plant response rating” value (blackgrass; [5]) was 7, the “Blackgrass plant response rating” value (blackgrass; [6]) was 8 and the “Blackgrass plant response rating (0 to 10 scale)” value (blackgrass; Preemergence, Rate 250 g/ha) was 9. For the same compound, the “Blackgrass plant response rating” value (blackgrass; [7]) was 10, the “Plant response rating, Barnyardgrass (0 to 10 scale, 0 is no effect, 10 is complete control)” value (bamyardgrass; [8]) was 0 and the “Barnyardgrass plant response rating (0 to 10 scale, 0 is no effect, 10 is complete control)” value (bamyardgrass; [9]) was 0. For the same compound, the “Barnyardgrass plant response rating” value (bamyardgrass; [10]) was 0, the “Barnyardgrass plant response rating” value (bamyardgrass; [11]) was 0 and the “Plant response rating, Velvetleaf” value (velvetleaf; [1]) was 3. For the same compound, the “Plant response rating, Velvetleaf” value (velvetleaf; [2]) was 3, the “Velvetleaf plant response rating” value (velvetleaf; [3]) was 7 and the “Plant response rating, Velvetleaf” value (velvetleaf; [4]) was 8. For the same compound, the “Velvetleaf plant response rating” value (velvetleaf; [5]) was 7, the “Velvetleaf plant response rating” value (velvetleaf; [6]) was 8 and the “Plant response rating, Velvetleaf” value (velvetleaf; [7]) was 9. For the same compound, the “Plant response rating, Wild oats” value (wild oat; [1]) was 0, the “Plant response rating, Wild oats” value (wild oat; [2]) was 0 and the “Wild oats plant response rating” value (wild oat; [3]) was 0. The “Plant response rating, Wild oats” value (wild oat; [4]) was 4, the “Wild oats plant response rating” value (wild oat; [5]) was 3 and the “Wild oats plant response rating” value (wild oat; [6]) was 7. For the same compound, the “Plant response rating, Wild oats” value (wild oat; [7]) was 10, the “Plant response rating, Ducksalad (0 to 10 scale, 0 is no effect, 10 is complete control)” value (duck salad; [8]) was 0 and the “Ducksalad plant response rating (0 to 10 scale, 0 is no effect, 10 is complete control)” value (duck salad; [9]) was 0. The “Ducksalad plant response rating” value (duck salad; [10]) was 0, the “Ducksalad plant response rating” value (duck salad; [11]) was 0 and the “Plant response rating, S. Flatsedge (0 to 10 scale, 0 is no effect, 10 is complete control)” value (smallflower flatsedge; [8]) was 0. The “S. Flatsedge plant response rating (0 to 10 scale, 0 is no effect, 10 is complete control)” value (smallflower flatsedge; [9]) was 0, the “S. Flatsedge plant response rating” value (smallflower flatsedge; [10]) was 0 and the “S. Flatsedge plant response rating” value (smallflower flatsedge; [11]) was 0. For the same compound, the “Plant response rating, Corn” value (corn; [1]) was 0, the “Plant response rating, Corn” value (corn; [2]) was 0 and the “Corn plant response rating” value (corn; [3]) was 2. The “Plant response rating, Corn” value (corn; [4]) was 7, the “Corn plant response rating” value (corn; [5]) was 2 and the “Corn plant response rating” value (corn; [6]) was 2. The “Corn plant response rating (0 to 10 scale)” value (corn; Preemergence, Rate 250 g/ha) was 6, the “Plant response rating, Corn” value (corn; [7]) was 9 and the “Plant response rating, Wheat” value (wheat; [1]) was 0. The “Plant response rating, Wheat” value (wheat; [2]) was 0, the “Wheat plant response rating” value (wheat; [3]) was 2 and the “Plant response rating, Wheat” value (wheat; [4]) was 6. For the same compound, the “Wheat plant response rating” value (wheat; [5]) was 0, the “Wheat plant response rating” value (wheat; [6]) was 0 and the “Plant response rating, Wheat” value (wheat; [7]) was 6. The “Plant response rating, Sugarbeets” value (sugar beet; [1]) was 0, the “Plant response rating, Sugarbeets” value (sugar beet; [2]) was 0 and the “Sugarbeets plant response rating” value (sugar beet; [3]) was 0. The “Plant response rating, Sugarbeets” value (sugar beet; [4]) was 1, the “Sugarbeets plant response rating” value (sugar beet; [5]) was 0 and the “Sugarbeets plant response rating” value (sugar beet; [6]) was 3. For the same compound, the “Plant response rating, Sugarbeets” value (sugar beet; [7]) was 8, the “Plant response rating, Crabgrass” value (crabgrass; [1]) was 5 and the “Plant response rating, Crabgrass” value (crabgrass; [2]) was 9. For the same compound, the “Crabgrass plant response rating” value (crabgrass; [3]) was 9, the “Crabgrass plant response rating” value (crabgrass; [5]) was 7 and the “Crabgrass plant response rating” value (crabgrass; [6]) was 7. For the same compound, the “Plant response rating, Crabgrass” value (crabgrass; [7]) was 9, the “Plant response rating, Nutsedge” value (purple nutsedge; [1]) was 0 and the “Plant response rating, Nutsedge” value (purple nutsedge; [2]) was 0. For the same compound, the “Nutsedge plant response rating” value (purple nutsedge; [3]) was 0, the “Plant response rating, Nutsedge” value (purple nutsedge; [4]) was 6 and the “Nutsedge plant response rating” value (purple nutsedge; [5]) was 0. For the same compound, the “Nutsedge plant response rating” value (purple nutsedge; [6]) was 0, the “Plant response rating, Nutsedge” value (purple nutsedge; [7]) was 4 and the “Plant response rating, Soybean” value (soybean; [1]) was 5. For the same compound, the “Plant response rating, Soybean” value (soybean; [2]) was 6, the “Plant response rating, Soybean” value (soybean; [4]) was 7 and the “Soybean plant response rating” value (soybean; [5]) was 4. The “Soybean plant response rating” value (soybean; [6]) was 6, the “Plant response rating, Soybean” value (soybean; [7]) was 7 and the “Plant response rating, Bedstraw” value (bedstraw; Rate 62 g/ha, scale 0 to 10, 0 is no effect, 10 is complete control) was 0. The “Plant response rating, Bedstraw” value (bedstraw; Rate 125 g/ha, scale of 0 to 10 where 0 is no effect and 10 is complete control) was 0, the “Bedstraw plant response rating” value (bedstraw; [5]) was 4 and the “Bedstraw plant response rating” value (bedstraw; [6]) was 8. For the same compound, the “Bedstraw plant response rating (0 to 10 scale)” value (bedstraw; Preemergence, Rate 250 g/ha) was 8, the “Plant response rating, B. signalgrass” value (surinam grass; [1]) was 0 and the “Plant response rating, B. signalgrass” value (surinam grass; [2]) was 1. For the same compound, the “B. signalgrass plant response rating” value (surinam grass; [3]) was 5, the “Plant response rating, B. signalgrass” value (surinam grass; [4]) was 8 and the “B. signalgrass plant response rating” value (surinam grass; [5]) was 3. For the same compound, the “B. signalgrass plant response rating” value (surinam grass; [6]) was 6, the “B. signalgrass plant response rating (0 to 10 scale, 0 is no effect, 10 is complete control)” value (surinam grass; Preemergence, Rate 250 g/ha) was 9 and the “B. signalgrass plant response rating” value (surinam grass; [7]) was 10. The “Plant response rating, Rice (0 to 10 scale, 0 is no effect, 10 is complete control)” value (rice; [8]) was 0, the “Rice plant response rating (0 to 10 scale, 0 is no effect, 10 is complete control)” value (rice; [9]) was 0 and the “Rice plant response rating” value (rice; [10]) was 0. The “Rice plant response rating” value (rice; [11]) was 0.
